Measured values published in PubChem BioAssay (NCI).
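These data come from cells grown in 96-well plates and exposed to compound for 48 hours at five concentrations. Here, GI50 denotes the concentration required for 50% inhibition of growth. TGI is the concentration that stops growth completely.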

Experiments:
Assay in all cases: NCI-60 cell line screen, 48 h
SF-539 CNS = system: SF-539 CNS
CAKI-1 renal = system: CAKI-1 renal
786-0 renal = system: 786-0 renal
UACC-62 melanoma = system: UACC-62 melanoma
UACC-257 melanoma = system: UACC-257 melanoma
MCF7 breast = system: MCF7 breast
OVCAR-8 ovarian = system: OVCAR-8 ovarian
M14 melanoma = system: M14 melanoma
COLO 205 colon = system: COLO 205 colon
HOP-62 NSCLC = system: HOP-62 NSCLC

| SMILES | TGI (SF-539 CNS) | TGI (CAKI-1 renal) | TGI (786-0 renal) | TGI (UACC-62 melanoma) | TGI (UACC-257 melanoma) | TGI (MCF7 breast) | TGI (OVCAR-8 ovarian) | TGI (M14 melanoma) | TGI (COLO 205 colon) | TGI (HOP-62 NSCLC) | GI50 (SF-539 CNS) | GI50 (CAKI-1 renal) | GI50 (786-0 renal) | GI50 (UACC-62 melanoma) | GI50 (UACC-257 melanoma) | GI50 (MCF7 breast) | GI50 (OVCAR-8 ovarian) | GI50 (M14 melanoma) | GI50 (COLO 205 colon) | GI50 (HOP-62 NSCLC) |
| --- | --- | --- | --- | --- | --- | --- | --- | --- | --- | --- | --- | --- | --- | --- | --- | --- | --- | --- | --- | --- |
| O=C(CCN1CCCCC1)N1CCc2c([nH]c3ccccc23)C1c1cccnc1 (stereo not given) | > 85.7 µM | > 100 µM | 82.9 µM | 42.2 µM | 34.7 µM | > 100 µM | > 100 µM | 42.2 µM | 44.8 µM | > 100 µM | – | – | – | – | – | – | – | – | – | – |
| C#CCN(c1ccc(C(=O)N[C@@H](CCC(=O)N[C@H](CCC(=O)O)C(=O)O)C(=O)O)cc1)C1CCc2cc3nc(CO)[nH]c(=O)c3cc21 (stereo not given in full) | > 100 µM | > 100 µM | > 100 µM | > 64.1 µM | > 100 µM | > 100 µM | > 100 µM | > 100 µM | > 100 µM | > 100 µM | 4.38 µM | 6.13 µM | 4.96 µM | 7.33 µM | > 100 µM | 0.899 µM | 5.81 µM | 7.97 µM | 13.8 µM | > 31.8 µM |
| Nc1ccccc1C(=O)CCC1C(=O)NC(=S)NC1=O | > 100 µM | > 100 µM | > 100 µM | > 100 µM | > 100 µM | > 100 µM | > 100 µM | > 100 µM | > 100 µM | > 100 µM | – | – | – | – | – | – | – | – | – | – |
| O=C1c2ccccc2-c2c1c1ccccc1c(=O)n2CCCNCCn1c2c(c3ccccc3c1=O)C(=O)c1ccccc1-2 | 27.8 µM | 28.7 µM | 9.64 µM | 19.3 µM | 35 µM | 13.8 µM | 16.6 µM | 10.9 µM | > 100 µM | 25.3 µM | 14.6 µM | 14.3 µM | 1.98 µM | 5.04 µM | 17.9 µM | 3.47 µM | 2.73 µM | 2.8 µM | 36.2 µM | 9.69 µM |
| O=C(c1ccc(Cl)cc1)C(O)c1ccc(Cl)cc1 (stereo not given) | > 100 µM | > 100 µM | > 100 µM | > 100 µM | > 100 µM | > 100 µM | > 100 µM | > 100 µM | > 100 µM | > 100 µM | – | – | – | – | – | – | – | – | – | – |
| CCOP(=O)(OCC)C(C(=O)OC)C(=O)C(=O)Nc1cccc(O)c1 (stereo not given) | > 100 µM | > 100 µM | > 100 µM | > 100 µM | > 100 µM | > 100 µM | > 100 µM | > 100 µM | > 100 µM | > 100 µM | – | – | – | – | – | – | – | – | – | – |
| Cn1cc(-c2cnn3c(N)c(Br)c(C4CCCNC4)nc23)cn1 (stereo not given) | 3.88 µM | > 38.5 µM | 60.6 µM | 28.8 µM | 60.6 µM | > 68.6 µM | > 100 µM | 16.8 µM | 19.8 µM | > 100 µM | 0.285 µM | 5.43 µM | 1.62 µM | 8.9 µM | 17.8 µM | 13.7 µM | 5.87 µM | 0.325 µM | 4.54 µM | 6.69 µM |
